Source: patent US5126258A (priority 1988, dated 1992)
pKi: −log10 of the molar value. “Also recorded” adds a separate entry of the source.

Key:
[1] = tested on: hog liver esterase; format: biochemical; conditions: pig, 5 µM, pH 8
Experimental: (§1) The lack of spectroscopic distinction between such esters and their hydrolysis products recommended a chromatographic analysis of the process. Referring to FIG. 3, a mixture of Compound 7 (5 uM) and the monoclonal antibody from hybridoma P3 6D4 (0.1 uM) in phosphate buffer (50 mM, pH 8.0) was analyzed over time by high performance liquid chromatography (HPLC). The accelerated hydrolysis of the ester was apparent from the decrease of its peak and the concurrent increase in two new peaks that correspond with the expected products. Under these conditions, the ester is completely consumed in 60-80 minutes during which time the background rate accounts for about 12 to 16 percent hydrolysis. The chromatographic profile is the same as that produced by treatment with hog liver esterase.
(§2) *Hydrolysis of carboxylic esters by monoclonal antibody (from hybridoma P
(§3) 6D4) and by hog liver esterase (Sigma Chemical Co., St. Louis, MO, EC
(§4) 3.1.1.1) determined by HPLC on an analytical RPC18 column (Vydac 218TP54)
(§5) with isocratic elution [acetonitrile: water plus 0.1 percent
(§6) trifluoroacetic acid; (35:65)] at a flow rate of 1.0 ml/min and the
(§7) detector set at 245 nm. The initial substrate concentration was 5
(§8) micromolar and that the internal standard (acetophenone) was 10 microm
(§9) olar in 50 mM phosphate buffer at pH 8.0. The retention times (minutes)
(§10) were as follows: acetophenone, 5.0; Compound 7, 8.3; Compound 8, 6.7;
(§11) Compound 9, 4.1; Compound 10, 11.1 (40 percent acetonitrile elution);
(§12) Compound 11, 8.2. The antibody concentration was 15 micrograms/ml (0.1
(§13) micromolar) and that of esterase was 5.5 micrograms/ml. The reaction
(§14) mixtures were kept at 25 degrees C. and aliquots were analyzed at
(§15) intervals of 2 to 20 minutes. Three or more determinations were used to
(§16) plot a curve from which the halflife of the reaction is estimated (see

[2] = Spontaneous (uncatalyzed, background) hydrolysis; format: physicochemical; conditions: spectrophotometric at 245 nm, initial rates at five ester concentrations; figure = k × 10^5
Experimental: The practical range of pH for the assay is limited by the rapid spontaneous rate of hydrolysis of an ester Compound 5 above pH 8.0. Initially, the ester was used at a concentration that was about four-fold greater than that of the protein, and the mixture was incubated at pH 7.2 for 10 minutes. Any change in fluorescence above background was noted.
as §1
^c The rate constants were determined spectrophotometrically (at 245
nm) by measuring initial rates at five concentrations of ester.
^1 Preliminary initial hydrolyses shown as the percentage of admixed
reactant ligand consumed for catalyzed and spontaneous hydrolyses. "--" =
No hydrolysis observed. "NT" = Not tried. All reactions were carried out
at pH 8.0 in a 50 mM phosphate buffer unless otherwise noted. Hydrolytic
percentages were determined by HPLC using a Hitachi model 655A12 liquid
chromatograph with a C18 Vydac 201TP54 column, except as noted below.
Mixtures of acetonitrile a nd water containing 0.1 percent trichloroaceti
acid [28:72-50:50 (v/v)] were used as elutant. Hydrolyses of Compounds 5
and 20 were assayed using fluorescence data.
^5 Spontaneous hydrolytic percentages for the time period indicated.
(§17) Reaction kinetics were studied using three reactant ligands as substrates for monoclonal receptors 37G2 and 22F5. Data from initial rates were consistent with Michaelis-Menten reaction mechanism for a usual enzyme-substrate system. Initial rates were followed using at 271 nm using a U.V.-visible spectorphotometer for Compound 17, and a fluorescence spectrometer for Compounds 5 and 20, using an excitation wavelength of 355 nm and an emission wavelength of 455 nm for both compounds.

[3] = tested on: P2 57G4; assay: Catalytic hydrolysis by receptor P2 57G4; format: biochemical, mouse
Experimental: (§18) Two further catalytic monoclonal receptors were similarly prepared by another fusion using Compound 2i linked to an antigenic carrier as immunogen. Those two catalytic receptor molecules and their hybridomas were designated "P2 50D8" and "P2 57G4".
(§19) In one study, twenty-eight monoclonal anti-hapten antibodies to phosphonate 2i from two separate fusion experiments were assayed. […] Antibodies to Compound 4i as hapten were assayed in the same manner. Twelve gamma-globulins were screened as described above. Compound 5 is homologous only in the acyl portion of this larger hapten; however, all but three of these cross-reacted with smaller phosphonate 2 in an ELISA assay as described herein. For two of these there was observed a fluorescence change, occurring in the first 5 minutes of incubation, which corresponds to about 50 percent of that for complete hydrolysis. The background rate of hydrolysis was reestablished after this initial reaction leveled off.

[4] = tested on: P2 50D8; assay: Catalytic hydrolysis by receptor P2 50D8; format: biochemical, mouse
Experimental: as §18, §19

[5] = tested on: monoclonal antibody P3 6D4; assay: Ester hydrolysis by monoclonal antibody P3 6D4, HPLC; format: biochemical, mouse; conditions: pH 8.0
Experimental: FIG. 3 illustrates the rate of hydrolysis of a carboxylic ester (Compound 7) determined by HPLC under the conditions described in Table 1 (50 mM phosphate buffer at pH 8.0 and 23 degrees C). ( ) Uncatalyzed (background)rate of hydrolysis. (.quadrature.) Effect of 0.5 micromolar non-specific monoclonal IgG. ( ) 0.1 Micromolar anti-Compound 4 monoclonal antibody from hybridoma P3 6D4. The superimposed curve represents a theoretical exponential decay which fits the data points.
In particular, an exemplary monoclonal receptor was produced by the standard hybridoma technology of Kohler et al., Nature, 256, 495 (1975). Specifically, female 129G1X^+ mice were immunized by intraperitoneal injection with an inoculum of 100 micrograms of conjugate (e.g., Compound 4i bound to KLH) in 300 microliters of a 1:1 mixture of phosphate buffered saline (PBS) pH 7.4 and complete Freund's adjuvant. Two weeks later, the mice were again injected in a like manner with 50 micrograms of the foregoing conjugate in 300 microliters of a 1:1 mixture of PBS (pH 7.4) and 10 mg/ml alum. After an additional eight weeks, the mice were immunized intravenously with 50 micrograms of the conjugate in 200 microliters of PBS (pH 7.4). The spleens were removed from the mice 4 days later, and the spleen cells were fused to myeloma cells.
as §1, §2, §3, §4, §5, §6, §7, §8, §9, §10, §11, §12, §13, §14, §15, §16

[6] = tested on: monoclonal receptor P3 6D4; assay: Stoichiometric transacylation reaction of monoclonal receptor P3 6D4 with coumarin ester Compound 5 (fluorescence) and its inhibition/inactivation; format: biochemical, mouse
Experimental: A Perkin-Elmer LS-5 fluorescence spectrometer was operated at a fixed wavelength, using 355 nanometers (nm) for excitation and measuring the emission at 455 nm. A stock solution of the coumarin ester 5 was prepared in dioxane and was diluted to the desired concentrations in Tris-HCl (50 mM, pH 7) or sodium phosphate (50 mM, pH 4-9).
Reactions were run at 23 degrees C and were initiated by the addition of an aliquot of antibody solution (1 mg/ml) to substrate solutions to provide a final protein concentration of 100 nM. Final fluorescence values were determined by hydrolysis of the substrate with pig liver esterase. The observed reaction rate was corrected for spontaneous hydrolysis. Reaction kinetics were studied by measuring initial rates under pseudo-first order conditions. Active protein concentration was extrapolated from fluorescence values at the end of the reaction. The kinetic parameters were obtained by fitting the data to a hyperbolic curve and from double reciprocal plots. Inhibition constants were determined from the Lineweaver-Burk plot data with at least five inhibitor concentrations. All the data were studied by a least squares analysis.
Antibody preparations were inactivated without introducing fluorescent products by the addition of the activated ester (Compound 8) in dioxane to a solution of the IgG (5 mg/ml) in Tris-HCl (50 mM, pH 6.5) at a ratio of 5 moles of the ester (Compound 8) per mole IgG.
Protein modification was performed in an analogous manner, by the addition of a dioxane solution of the reagent at a known concentration to the antibody. The solution was incubated for 30 minutes before filtration through Sephadex G-25. The activity remaining was compared to control samples. Aliquots of IgG (5 mg/ml) inactivated with the ester (Compound 8) were diluted with four volumes of phosphate buffer (50 mM, pH 4-9, at intervals of 1 pH unit). Any pH change was recorded, and the sample was stored at 4 degrees C for 24 hours.
Initially, the ester was used at a concentration that was about four-fold greater than that of the protein, and the mixture was incubated at pH 7.2 for 10 minutes. Any change in fluorescence above background was noted.
The termination of the reaction is noted by the return of the rate of fluorescence increase to the background level.

[7] = Chemical stability
[8] = molecular target: Monoclonal Receptor 37G2; assay: Kinetics of hydrolysis by receptor 37G2; format: biochemical, mouse; conditions: inhibitor Compound 12i (100 and 300 nM), substrate Compound 17; figure = Ki × 10^7
Text: as §17
Lineweaver-Burke plots for the catalyzed hydrolysis of Compounds 17, 5 and 20 obtained in the presence and absence of Compound 12i as inhibitor were prepared as discussed for FIG. 4. In particular, Compound 17 was present at concentrations of 1-16 uM with inhibitor concentrations of 100 and 300 nanomolar (nM). Compound 5 was present at concentrations of 1-10 uM with inhibitor concentrations of 100 and 200 nM. Compound 20 was present at concentrations of 2-20 uM with inhibitor concentrations of 25 and 100 nM. […]
(§20) 50 mM phosphate buffer at a pH value of 8.0. The reactant ligand was
(§21) dissolved in dioxane and admixed in the amounts discussed above. Two
(§22) milliliters of reaction solution were utilized as was a dioxane
concentration of 2 percent by volume. Assays with Compound 17 as reac tan
ligand utilized 500 nanomolar receptor (based on a molecular weight of
150,000 daltons) in the above buffer, using the reactant ligand dissolved
in dioxane and a total dioxane concentration of 2 percent by volume.

[9] = molecular target: Monoclonal Receptor 22F5; assay: Kinetics of hydrolysis by receptor 22F5; format: biochemical, mouse; conditions: figure = Ki × 10^7
Text: as §17
Lineweaver-Burke plots for the catalyzed hydrolysis of Compounds 17, 5 and 20 obtained in the presence and absence of Compound 12i as inhibitor were prepared as discussed for FIG. 4. In particular, Compound 17 was present at concentrations of 1-16 uM with inhibitor concentrations of 100 and 300 nanomolar (nM). Compound 5 was present at concentrations of 1-10 uM with inhibitor concentrations of 100 and 200 nM. Compound 20 was present at concentrations of 2-20 uM with inhibitor concentrations of 25 and 100 nM.
*Fluorescence assays using Compounds 20 and 5 were carried out in a
PerkinElmer fluorescence spectrophotometer (moded LS5; Oakbrook, IL) usin
200 nanomolar receptor (based on a molecular weight of 150,000 daltons) i
as §20, §21, §22
concentration of 2 percent by volume. […]

Structure (SMILES): CC(=O)Nc1ccc(CC(=O)Oc2ccc(NC(=O)C(F)(F)F)cc2)cc1 [Compound 11]
- t1/2 Esterase [1]: 5 min
- kuncat [2]: 610000 s⁻¹
- catalytic hydrolysis by P2 57G4 [3]: capable of catalytically hydrolyzing
- catalytic hydrolysis by P2 50D8 [4]: capable of catalytically hydrolyzing
- accelerated hydrolysis by P3 6D4 (substrate acceptance) [5]: not manifested by the accelerated hydrolysis

Structure (SMILES): O=C(Cc1ccc(NC(=O)C(F)(F)F)cc1)Oc1ccccc1 [Compound 10]
- t1/2 Esterase [1]: 2 min
- stoichiometric antibody reaction (release of alcohol) [6]: Neither is the stoichiometric reaction apparent
- accelerated hydrolysis by P3 6D4 (substrate acceptance) [5]: no effect on the hydrolytic rate; also recorded: not catalyzed

Structure (SMILES): Cc1ccc2cccc(NP(=O)(O)Cc3ccc(NC(=O)C(F)(F)F)cc3)c2n1 [Compound 12i]
- stability ([7]; pH 3.5-7.3, room temperature): at least 11 days
- pKi [8]: 6.85
- pKi ([9]; inhibitor Compound 12i (25 and 100 nM), substrate Compound 20): 7.15
- pKi ([9]; inhibitor Compound 12i (100 and 200 nM), substrate Compound 5): 6.96

Structure (SMILES): Cc1ccc2cccc(NP(=O)(O)Cc3ccc(NC(=O)CCCC(=O)ON4C(=O)CCC4=O)cc3)c2n1 [Compound 13]
- decomposition ([7]; pH 3.5 and 6.2): No signs of decomposition
- stability at zero degrees C ([7]; zero degrees C, over 5 days): stable

Structure (SMILES): COC(=O)c1cccc(C(=O)NCc2cc(NC(=O)CCCCC(=O)ON3C(=O)CCC3=O)ccc2OP(=O)(O)Cc2ccc(NC(=O)C(F)(F)F)cc2)n1 [Compound 4i]
- hydrolytic stability (NHS group) ([7]; store at zero degrees C in a dessicator): prone to hydrolysis

Structure (SMILES): CC(=O)Nc1ccc(CC(=O)Oc2ccc(NC(C)=O)cc2)cc1 [Compound 9]
- t1/2 Esterase [1]: 4 min
- kuncat [2]: 25000 s⁻¹
- catalytic hydrolysis by P2 57G4 [3]: capable of catalytically hydrolyzing
- catalytic hydrolysis by P2 50D8 [4]: capable of catalytically hydrolyzing
- accelerated hydrolysis by P3 6D4 (substrate acceptance) [5]: not accepted as substrates
